Assay results: patent publication US20140335083A1, “METHODS OF TREATMENT AND PREVENTION OF EYE DISEASES” (GLAXO GROUP LIMITED, priority 2011, published 2014)
Like-named read-outs stand apart in the source and are kept apart here.

How the values were obtained:
[1] = tested on: retinal neovascularization in C57BL/6 mice; assay: Oxygen-induced retinopathy, area of retinal neovascularization; assay type: in vivo; settings: 5 ug peri-ocularly every 5 days
Description: C57BL/6 mice placed in 75% O2 at postnatal day (P) 7 and at P12 were returned to room air and treatment initiated with compound or vehicle. At P17, the area of retinal NV on the surface of the retina was measured as described previously (Shen et al., 2007). Briefly, P17 mice were given an intraocular injection of 1 μl of rat anti-mouse platelet endothelial cell adhesion molecule-1 (PECAM-1) antibody (Pharmingen, San Jose, Calif., USA); after 12 h, they were euthanized, and eyes were fixed in PBS-buffered formalin for 5 h at room temperature. Retinas were dissected, washed, and incubated with goat-anti rat polyclonal antibody conjugated with Alexa 488 (Invitrogen, Carlsbad, Calif., USA) at 1:500 dilution at room temperature for 45 min and flat mounted. An observer masked with respect to treatment group measured the area of NV per retina by image analysis.
(see, FIGS. 12 and 13). In systemic experiments both eyes were examined and no significant differences were observed between CCR3 inhibitor '994 and vehicle treated groups. In topical experiments no significant differences were noted between CCR3 inhibitor '994 and vehicle groups nor treated and fellow eye in the CCR3 inhibitor '994 treated group. […] Consequently SU4312 acts similarly on retinal neovascularization to that of an alternative receptor tyrosine kinase inhibitor pazopanib which was effective in limiting choroidal neovascularization.

[2] = tested on: laser-induced model of CNV AMD; settings: oral dosing; Mizutani et al., 2011; cited from earlier work
[3] = Exposure in Cynomolgus monkey; settings: in vivo
[4] = tested on: laser-induced CNV in Cynomolgus monkey; assay: Laser-induced choroidal neovascular AMD study in the Cynomolgus monkey, Grade IV lesions; assay type: in vivo
Description: Cynomolgus monkeys were dosed with vehicle or the CCR3 antagonist tool compound the '415 compound as shown in Table A for 29 days with laser occurring […]. […]
The macula of each eye underwent laser treatment with a 532-nm diode green laser burns (OcuLight GL, IRIDEX Corp Inc, Mountain View, Calif.) using a slit lamp delivery system and a Kaufman-Wallow (Ocular Instruments Inc, Bellevue, Wash.) plano fundus contact lens. Animals were anesthetized and nine areas symmetrically placed in the macula of each eye. The laser parameters included a 75-micron spot size and 0.1-second duration. The power setting used was assessed by the ability to produce a blister and a small haemorrhage. Unless haemorrhage is observed with the first laser treatment, a second laser spot will be placed adjacent to the first following the same laser procedure (except the wattage would be adjusted). For areas not adjacent to the fovea, the initial power setting was 500 mW; if a second spot is placed, the power was set to 650 mW. For the area adjacent to the fovea, the power settings was 400 mW (initial treatment) and 550 mW (second treatment). […]
Animals were fasted before fluorescein angiography for at least 2 hours prior to being anesthetized and the eyes dilated with a mydriatic agent. […] Comparison of the incidence of Grade IV lesions between groups was evaluated.

Cynomolgus monkey CCR3 = molecular target: T1, Cynomolgus monkey CCR3 (Macaca fascicularis, UniProt Q9BDS8); assay: Cynomolgus monkey whole blood eotaxin-stimulated eosinophil shape change assay; assay type: cell-based
T1 construct: from tissue; host or cells: Cynomolgus monkey whole blood (eosinophils)
T1 sequence (Q9BDS8 1-355): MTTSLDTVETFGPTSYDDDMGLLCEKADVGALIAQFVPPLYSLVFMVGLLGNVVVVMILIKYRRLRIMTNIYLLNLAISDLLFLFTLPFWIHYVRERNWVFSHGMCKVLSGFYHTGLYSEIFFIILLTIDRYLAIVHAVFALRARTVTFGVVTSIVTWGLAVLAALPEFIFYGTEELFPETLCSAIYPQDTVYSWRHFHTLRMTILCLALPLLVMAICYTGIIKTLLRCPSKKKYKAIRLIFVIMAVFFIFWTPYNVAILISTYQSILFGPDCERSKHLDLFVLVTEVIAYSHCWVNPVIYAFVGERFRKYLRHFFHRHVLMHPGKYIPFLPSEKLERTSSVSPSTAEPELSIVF
Description: Blood (10 mL) was taken from Cynomolgus monkeys and 1.1 ml of 3.8% sodium citrate solution added. Aliquots (90 μl) were incubated with antagonist at room temperature for 10 minutes then transferred to BSA-coated micronic tubes containing agonist (10 μl human eotaxin (Peprotech) Eotaxin was present at final concentrations between 0 and 1000 nM. The cells were incubated at 37° C. for a further 4 minutes before addition of […] of ice-cold fixation buffer (a ¼ dilution of 1x Cellfix (Becton Dickinson)). After a minimum of 2 minutes the fixed samples were transferred into 2 ml of ice cold erythrocyte lysis buffer (155 mM NH4Cl, 10 mM KHCO3) and incubated on ice until lysis was complete (˜30 minutes). The mean forward scatter of the eosinophil population was then determined on a FACScalibur flow cytometer.
The concentration response curve of eotaxin-1 on eosinophil shape change in Cynomolgus whole blood and the effect of pre-incubation of 10 nM and 100 nM the '415 compound is shown in FIG. 11.

[5] = molecular target: T2, Cynomolgus whole blood CCR3 (Macaca fascicularis, UniProt Q9BDS8); assay: Fractional receptor occupancy at trough in Cynomolgus monkey; assay type: in vivo; settings: at trough (8 hours); both 9 mg/kg/day and 60 mg/kg/day, TID
T2 construct: from tissue; host or cells: Cynomolgus monkey whole blood (eosinophils)
T2 sequence (Q9BDS8 1-355): T1 sequence (Q9BDS8 1-355)

## CN(C)c1ccc(/C=C2\C(=O)Nc3ccccc32)cc1 [SU4312]
[1]
  effect on retinal neovascularization: effective inhibitor
  p, reduction in retinal neovascularization, treated versus fellow (non-treated) eyes: < 0.004
  p, reduction in retinal neovascularization, treated versus vehicle treated eyes: < 0.003

## Cc1ccc[n+]([O-])c1C(=O)N1CCC(=CC(=O)NC2CCN(Cc3ccc4cc(F)ccc4c3)C2)CC1 (centres unmarked) [YM-344031]
[2]
  efficacy in a laser-induced model of CNV AMD: effective

## Cn1nnc(CNC(=O)NC[C@H]2CN(Cc3ccc(Cl)c(Cl)c3)CCO2)n1 [the '415 compound, (S)-1-((4-(3,4-dichlorobenzyl)morpholin-2-yl)methyl)-3-((2-methyl-2H-tetrazol-5-yl)methyl)urea]
[3]
  exposure in Cynomolgus monkey: reasonable exposure in this primate with low inter-animal variability
[4]; 20 mg/kg TID po, fluorescence angiography at 16, 24 and 30 days post-laser
  effect on the generation of grade IV lesions: statistically robust effect
[4]; lower dose (3 mg/kg TID po)
  effect on the number of grade IV lesions: not statistically different from controls
Cynomolgus monkey CCR3; Cynomolgus whole blood
  inhibition of human eotaxin-induced eosinophil shape change: concentration-dependent, surmountable inhibition
Cynomolgus monkey CCR3; depending on experiment, read-out: pA2, potency against Cynomolgus monkey CCR3 (converted)
  Kb: 10 to 100 nM
Cynomolgus monkey CCR3; eotaxin-1 stimulated eosinophil shape change in Cynomolgus whole blood, read-out: mean pA2 (Schild analysis) (converted)
  Kb: 15.8 nM
[5]
  fractional receptor occupancy: > 95%
